Laboratory results from patent US20240262814A1, “MODULATORS OF TREX1” (Constellation Pharmaceuticals, Inc., priority 2021, published 2024).

Target: T1, human TREX1 (Homo sapiens, UniProt Q9NSU2)
T1 construct: N-terminally His-Tev tagged full length human TREX1; made in house; host or cells: E. coli
T1 sequence (Q9NSU2 1-314): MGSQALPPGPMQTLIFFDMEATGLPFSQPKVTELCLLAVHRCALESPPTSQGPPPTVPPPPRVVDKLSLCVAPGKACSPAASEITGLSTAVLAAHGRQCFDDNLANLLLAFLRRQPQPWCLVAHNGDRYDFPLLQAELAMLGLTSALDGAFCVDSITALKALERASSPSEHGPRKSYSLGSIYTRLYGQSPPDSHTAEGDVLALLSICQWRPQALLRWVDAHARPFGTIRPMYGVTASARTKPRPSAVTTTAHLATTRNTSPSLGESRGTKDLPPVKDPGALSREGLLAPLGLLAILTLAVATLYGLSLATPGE
Assay: TREX1 kinetics assays (TR-FRET association and dissociation with biotinylated probe)
Format: binding
Conditions: for koff / kon: hTREX1, 25° C., global fit Kintek Explorer; for Kd / residence time: hTREX1, kinetic data
Description: Compound binding kinetics were assessed using a pair of TR-FRET assays which measure the proportion of protein bound to a biotinylated TREX1 inhibitor (“probe”).
N-terminally His-Tev tagged full length human TREX1 (expressed in E. coli and purified in house), complexed with Eu-W 1024-anti-6×His (“Eu”; PerkinElmer) in reaction buffer (50 mM Tris, 150 mM NaCl, 2 mM DTT, 0.1 mg/mL BSA, 0.01% (w/v) Tween-20, 5 mM MgCl2, pH 7.4) was combined with an equal volume of test compound in reaction buffer and incubated at 25° C. Concentrations at this stage were 1 nM TREX1/Eu complex, and four concentrations of compound (diluted from 10 mM stocks in 100% DMSO). At defined time points, 18 μL of this mixture was withdrawn and combined with 2 p L probe to a final concentration of 1 μM probe. After incubating for 30 seconds, 18 μL was withdrawn and combined with 2 μL streptavidin-allophycocyanin (“SA-APC”; PerkinElmer) to a final concentration of 1.5 μM SA-APC. Fifteen μL of this mixture was then immediately transferred to a 384-well Black ProxiPlate Plus (PerkinElmer) and read in an EnVision plate reader (PerkinElmer) measuring fluorescence at 615 nm and 665 nm following excitation w/337 nm laser light. Final concentrations were 0.8 nM TREX1/Eu complex, 0.9 μM probe, and 1.5 μM SA-APC.
N-terminally His-Tev tagged full length human TREX1 (expressed in E. coli and purified in house), complexed with Eu-W1024-anti-6×His (“Eu”; PerkinElmer) in reaction buffer (50 mM Tris, 150 mM NaCl, 2 mM DTT, 0.1 mg/mL BSA, 0.01% (w/v) Tween-20, 5 mM MgCl2, pH 7.4) was combined with an equal volume of test compound in reaction buffer. Concentrations at this stage were 100 nM TREX1/Eu complex and 100 nM test compound (diluted from 10 mM stocks in 100% DMSO). Following an equilibration period of at least an hour at 25° C., this mixture was diluted 100-fold into reaction buffer containing 1 μM probe, and incubated at 25° C. At defined time points, 36 μL of the reaction mixture was withdrawn and combined with 4 μL streptavidin-allophycocyanin (“SA-APC”; PerkinElmer) to a final concentration of 1.5 μM SA-APC. Fifteen μL of this mixture was then immediately transferred to duplicate wells of a 384-well Black ProxiPlate Plus (PerkinElmer) and read in an EnVision plate reader (PerkinElmer) measuring fluorescence at 615 nm and 665 nm following excitation w/ 337 nm laser light.
The TR-FRET signal, a ratio of 665 nm/615 nm emitted light, was converted to fraction enzyme bound to test compound by normalizing to low signal (no enzyme or test compound) and high signal (no test compound) controls. Data from both association and dissociation experiments were fitted globally using Kintek Explorer software, which computes the rate constants directly.

Row | SMILES | koff [s⁻¹] | kon [M⁻¹ s⁻¹] | Kd [nM] | residence time [min]
1 | CC(c1nc(C(=O)Nc2cnoc2)c(O)c(=O)n1C)C(c1ccccc1)c1cc(F)ccc1C#N (single isomer, unassigned) [Example 6 Isomer 4] | 3.37e-05 | 173000 | 0.194 | 495
2 | CC(c1nc(C(=O)Nc2cnoc2)c(O)c(=O)n1C)C(c1ccccc1)c1ccccc1C#N (single isomer, unassigned) [Example 3 Isomer 4] | 3.6e-05 | 164000 | 0.219 | 463
3 | CC(c1nc(C(=O)Nc2cnoc2)c(O)c(=O)n1C)C(c1ccccc1)c1cc(Cl)ccc1C#N (single isomer, unassigned) [Example 8 Isomer 2] | 4.17e-05 | 116000 | 0.361 | 400
4 | C[C@H](c1nc(C(=O)Nc2cnoc2)c(O)c(=O)n1C)[C@H](c1ccccc1)c1ccccc1Cl (single isomer, unassigned) [Example 2 Isomer 3, 2-(1-(2-chlorophenyl)-1-phenylpropan-2-yl)-5-hydroxy-N-(isoxazol-4-yl)-1-methyl-6-oxo-1,6-dihydropyrimidine-4-carboxamide] | 5.48e-05 | 159000 | 0.345 | 304
5 | CC(c1nc(C(=O)Nc2cnoc2)c(O)c(=O)n1C)C(c1ccccc1)c1ccccc1 (single isomer, unassigned) [Example 1 Isomer 2, 2-(1,1-diphenylpropan-2-yl)-5-hydroxy-N-(isoxazol-4-yl)-1-methyl-6-oxo-1,6-dihydro pyrimidine-4-carboxamide] | 0.000192 | 50300 | 3.8 | 87

Compounds with a lower Kd, results first:

Row | koff [s⁻¹] | kon [M⁻¹ s⁻¹] | Kd [nM] | residence time [min] | SMILES
6 | 4.77e-05 | 260000 | 0.183 | 350 | C[C@H](c1nc(C(=O)Nc2cnoc2)c(O)c(=O)n1C)C(c1ccccc1Cl)c1ccccc1Cl (single isomer, unassigned) [Example 15 Isomer 1, 2-(1,1-bis(2-chlorophenyl)propan-2-yl)-5-hydroxy-N-(isooxazol-4-yl)-1-methyl-6-oxo-1,6-dihydropyrimidine-4-carboxamide]
7 | 2.07e-05 | 178000 | 0.116 | 806 | CC(c1nc(C(=O)Nc2cnoc2)c(O)c(=O)n1C)C(c1ccccc1)c1ccc(Cl)cc1C#N (single isomer, unassigned) [Example 9 Isomer 4]
8 | 1.92e-05 | 257000 | 0.075 | 870 | CC(c1nc(C(=O)Nc2cnoc2)c(O)c(=O)n1C)C(c1cc(F)cc(F)c1)c1ccccc1C#N (single isomer, unassigned) [Example 11 Isomer 3]
9 | 3.15e-05 | 448000 | 0.07 | 529 | CC(c1nc(C(=O)Nc2cnoc2)c(O)c(=O)n1C)C(c1ccccc1Cl)c1ccccc1C#N (single isomer, unassigned) [Example 10 Isomer 1]
10 | 3.83e-05 | 907000 | 0.042 | 435 | CC(c1nc(C(=O)Nc2cnoc2)c(O)c(=O)n1C)C(c1ccccc1C#N)c1ccccc1C#N (single isomer, unassigned) [Example 4 Isomer 2]
